Reference: ChEMBL document CHEMBL1201862, “PubChem BioAssay data set” (2004)
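Test compounds were applied to cells in 96-well plates for 48 hours at 5 doses. GI50: concentration for 50% inhibition of growth.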 Activity calls are given as the source filed them. Cut-off read from the data, not from the text of the source: active = GI50 up to about 1.1 µM and inactive = higher.

What was measured:
Experiment in all cases: NCI-60 cell line screen, 48 h
[1] = system: HOP-92
[2] = system: HCT-15
[3] = system: K562
[4] = system: Hs-578T
[5] = system: 786-0
[6] = system: T47D
[7] = system: TK-10
[8] = system: RXF 393
[9] = system: SW-620
[10] = system: BT-549
[11] = system: HCC 2998
[12] = system: HOP-62
[13] = system: EKVX
[14] = system: ACHN
[15] = system: SR
[16] = system: SF-268
[17] = system: SK-OV-3
[18] = system: NCI-H460
[19] = system: PC-3

| Compound | GI50 [1] | GI50 [2] | GI50 [3] | GI50 [4] | GI50 [5] | GI50 [6] | GI50 [7] | GI50 [8] | GI50 [9] | GI50 [10] | GI50 [11] | GI50 [12] | GI50 [13] | GI50 [14] | GI50 [15] | GI50 [16] | GI50 [17] | GI50 [18] | GI50 [19] |
| --- | --- | --- | --- | --- | --- | --- | --- | --- | --- | --- | --- | --- | --- | --- | --- | --- | --- | --- | --- |
| O=C1/C(=C(/Br)I)c2ccccc2-c2ccccc21 | 2.79 µM (inactive) | 4.34 µM | 2.36 µM (inactive) | 28.6 µM (inactive) | 3.34 µM (inactive) | 11.9 µM (inactive) | 8.97 µM (inactive) | 3.21 µM (inactive) | 2.52 µM (inactive) | 7.03 µM (inactive) | 3.76 µM (inactive) | 17.1 µM (inactive) | 18 µM (inactive) | 7.26 µM (inactive) | 2.92 µM (inactive) | 14.1 µM (inactive) | 15.7 µM (inactive) | 17.8 µM (inactive) | 8.34 µM (inactive) |
| CC(C)CCC[C@@H](C)[C@H]1CC[C@H]2[C@@H]3CC=C4C[C@@H](OC(=O)c5cccc6c(=O)c7ccccc7[nH]c56)CC[C@]4(C)[C@H]3CC[C@]12C | > 75 µM (inactive) | > 75 µM | 43.7 µM (inactive) | > 75 µM (inactive) | > 75 µM (inactive) | > 75 µM (inactive) | > 75 µM (inactive) | > 75 µM (inactive) | > 75 µM (inactive) | > 75 µM (inactive) | > 75 µM (inactive) | 34.9 µM (inactive) | > 75 µM (inactive) | > 75 µM (inactive) | > 75 µM (inactive) | > 75 µM (inactive) | > 75 µM (inactive) |  | > 75 µM (inactive) |
| O=C1C(Br)=CC2(C=C1Br)CCNC1=C2C(=O)c2ncccc2C1=O | 1.82 µM (inactive) | 0.618 µM | 0.266 µM (active) | 1.27 µM (inactive) | 1.47 µM (inactive) | 1.97 µM (inactive) | 2.32 µM (inactive) | 1 µM (active) | 1.1 µM (active) | 1.42 µM (inactive) | 1.98 µM (inactive) | 0.542 µM (active) | 1.65 µM (inactive) | 0.56 µM (active) | 0.457 µM (active) | 1.49 µM (inactive) | 2.03 µM (inactive) | 0.308 µM (active) | 1.95 µM (inactive) |
| C#CCN1CCN(C(=S)N/N=C(\C)c2ccccn2)CC1 | 0.166 µM (active) | 0.01 µM | 0.01 µM (active) | 1.74 µM (inactive) | 0.0721 µM (active) | 0.0016 µM (active) | 3.28 µM (inactive) | 0.465 µM (active) | 0.0262 µM (active) | 1.49 µM (inactive) | 0.568 µM (active) | 0.363 µM (active) | 0.0792 µM (active) | 0.044 µM (active) | 0.011 µM (active) | 0.889 µM (active) | 0.877 µM (active) | 0.619 µM (active) | 0.00975 µM (active) |
| N#Cc1ccc(C2ON=C(c3ccccc3)N2C23CC4CC(CC(C4)C2)C3)cc1 (stereo unspecified) | > 10 µM (inactive) | > 10 µM | > 10 µM (inactive) | > 10 µM (inactive) | > 10 µM (inactive) | > 10 µM (inactive) | > 10 µM (inactive) | > 10 µM (inactive) | > 10 µM (inactive) | 5.66 µM (inactive) | > 10 µM (inactive) | > 10 µM (inactive) | > 10 µM (inactive) | > 10 µM (inactive) | 3.85 µM (inactive) | > 10 µM (inactive) | > 10 µM (inactive) | > 10 µM (inactive) | 7.98 µM (inactive) |
| Cc1cccc(Cl)c1NCC(O)CN1CCN(C)CC1 (stereo unspecified) | > 100 µM (inactive) | > 100 µM | > 100 µM (inactive) | > 100 µM (inactive) | > 100 µM (inactive) | > 100 µM (inactive) | > 100 µM (inactive) | > 100 µM (inactive) | > 100 µM (inactive) | > 100 µM (inactive) | > 100 µM (inactive) | > 100 µM (inactive) | > 100 µM (inactive) | > 100 µM (inactive) | > 100 µM (inactive) | > 100 µM (inactive) |  | > 100 µM (inactive) | > 100 µM (inactive) |
| Cn1cc(NC(=O)Nc2cc(C(=O)Nc3cc(C(=O)Nc4cc(S(=O)(=O)O)c5cc(S(=O)(=O)O)cc(S(=O)(=O)O)c5c4)n(C)c3)n(C)c2)cc1C(=O)Nc1cc(C(=O)Nc2cc(S(=O)(=O)O)c3cc(S(=O)(=O)O)cc(S(=O)(=O)O)c3c2)n(C)c1 | 62.7 µM (inactive) | > 100 µM | > 100 µM (inactive) | > 100 µM (inactive) | > 100 µM (inactive) | > 100 µM (inactive) | 87.1 µM (inactive) | > 100 µM (inactive) | > 100 µM (inactive) | > 100 µM (inactive) | > 100 µM (inactive) | > 100 µM (inactive) | 31.9 µM (inactive) | > 100 µM (inactive) | > 100 µM (inactive) | > 100 µM (inactive) | > 100 µM (inactive) | > 100 µM (inactive) | > 100 µM (inactive) |
